# From patent US10792289B2 (Horizon Orphan LLC, priority 2009, dated 2020)
# System: stable CF patients
# Test: Phase 2 study: pulmonary function (FEV1, FVC, FEF 25-75)
# Format: in vivo, human
# Design: FEF 25-75, Median / FEV1, Day 14, Mean / FEF 25-75, Mean: unit not given here; FEV1, Day 1, Mean / FEV1, Day 1, Median / FEV1, Day 14, Median / FEV1, Day 28, Mean / FEV1, Day 28, Median: unit: L
# Conditions: EE population
# Method: The following dosage regimens (as nebulizer loaded doses) were evaluated: 120 mg QD (daily); 240 mg QD (daily); and 240 mg BID (twice daily).
# Efficacy endpoints including clinical endpoints, pulmonary function tests, and additional microbiological parameters were assessed as change from Day 1 to subsequent visits where the endpoint data was collected. Time to need for intravenous/oral/inhaled anti-pseudomonal antimicrobials were assessed from Day 1 until final visit using survival analysis. The primary population for efficacy analysis was the EE population, but efficacy endpoints were also analyzed using the MITT population.
# Changes in FEV1 (forced expiratory volume in 1 second), FVC (forced vital capacity) and FEF 25-75 (forced expiratory flow 25-75%) from Day 1 to all subsequent visits were determined for patients. Tables 26 and 27 summarize the results for FEV1 measurements in EE and MITT populations, respectively. FIGS. 7 and 8 show graphs of percent change in FEV1 (L) and percent change in FEV1(L) vs. placebo, respectively, at Day 28 for the EET population treated with placebo, 120 mg QD, 240 mg QD, or 240 mg BID. […] Tables 28 and 29 summarize the results for predicted FEVI measurements in EE and MITT populations, respectively. Tables 30 and 31 summarize results for FEF 25-75 measurements in EE and MITT populations, respectively.
# [1] = Day 1 (baseline), combined 240 mg QD and BID
# [2] = Day 14, combined 240 mg QD and BID
compound,measurement,setting,value
"C[C@H]1COc2c(N3CCN(C)CC3)c(F)cc3c(=O)c(C(=O)O)cn1c23 [Levofloxacin, levofloxacin]","% predicted FEV1, Day 1, Mean",120 mg QD,54.0 % predicted
same,"% predicted FEV1, Day 1, Median",120 mg QD,53.0 % predicted
same,"% predicted FEV1, Day 14, Mean",120 mg QD,54.7 % predicted
same,"% predicted FEV1, Day 14, Median",120 mg QD,53.0 % predicted
same,"% predicted FEV1, Day 28, Mean",120 mg QD,55.0 % predicted
same,"% predicted FEV1, Day 28, Median",120 mg QD,52.0 % predicted
same,"FEF 25-75, Percent Change from Baseline to Day 14, Mean",120 mg QD,0.41%
same,"FEF 25-75, Percent Change from Baseline to Day 14, Median",120 mg QD,0.45%
same,"FEF 25-75, Percent Change from Baseline to Day 28, Mean",120 mg QD,0.73%
same,"FEF 25-75, Percent Change from Baseline to Day 28, Median",120 mg QD,2.70%
same,"FEV1, Day 1, Mean",120 mg QD,1.99
same,"FEV1, Day 1, Median",120 mg QD,1.87
same,"FEV1, Day 14, Mean",120 mg QD,2.00
same,"FEV1, Day 14, Median",120 mg QD,1.82
same,"FEV1, Day 28, Mean",120 mg QD,2.03
same,"FEV1, Day 28, Median",120 mg QD,1.91
same,"FEV1, Percent Change from Baseline to Day 14, Mean",120 mg QD,1.13%
same,"FEV1, Percent Change from Baseline to Day 14, Median",120 mg QD,0.56%
same,"FEV1, Percent Change from Baseline to Day 28, Mean",120 mg QD,1.71%
same,"FEV1, Percent Change from Baseline to Day 28, Median",120 mg QD,1.06%
same,"% predicted FEV1, Day 1, Mean",240 mg BID,48.2 % predicted
same,"% predicted FEV1, Day 1, Median",240 mg BID,45.5 % predicted
same,"% predicted FEV1, Day 14, Mean",240 mg BID,51.7 % predicted
same,"% predicted FEV1, Day 14, Median",240 mg BID,49.5 % predicted
same,"% predicted FEV1, Day 28, Mean",240 mg BID,50.5 % predicted
same,"% predicted FEV1, Day 28, Median",240 mg BID,49.0 % predicted
same,"FEF 25-75, Percent Change from Baseline to Day 14, Mean",240 mg BID,16.99%
same,"FEF 25-75, Percent Change from Baseline to Day 14, Median",240 mg BID,11.66%
same,"FEF 25-75, Percent Change from Baseline to Day 28, Mean",240 mg BID,13.11%
same,"FEF 25-75, Percent Change from Baseline to Day 28, Median",240 mg BID,5.71%
same,"FEV1, Day 1, Mean",240 mg BID,1.86
same,"FEV1, Day 1, Median",240 mg BID,1.70
same,"FEV1, Day 14, Mean",240 mg BID,2.02
same,"FEV1, Day 14, Median",240 mg BID,1.88
same,"FEV1, Day 28, Mean",240 mg BID,1.90
same,"FEV1, Percent Change from Baseline to Day 14, Mean",240 mg BID,8.87%
same,"FEV1, Percent Change from Baseline to Day 14, Median",240 mg BID,7.51%
same,"FEV1, Percent Change from Baseline to Day 28, Mean",240 mg BID,5.05%
same,"FEV1, Percent Change from Baseline to Day 28, Median",240 mg BID,4.55%
same,"% predicted FEV1, Day 1, Mean",240 mg QD,55.9 % predicted
same,"% predicted FEV1, Day 1, Median",240 mg QD,56.0 % predicted
same,"% predicted FEV1, Day 14, Mean",240 mg QD,57.7 % predicted
same,"% predicted FEV1, Day 14, Median",240 mg QD,62.0 % predicted
same,"% predicted FEV1, Day 28, Mean",240 mg QD,57.3 % predicted
same,"% predicted FEV1, Day 28, Median",240 mg QD,58.0 % predicted
same,"FEF 25-75, Percent Change from Baseline to Day 14, Mean",240 mg QD,9.58%
same,"FEF 25-75, Percent Change from Baseline to Day 14, Median",240 mg QD,4.41%
same,"FEF 25-75, Percent Change from Baseline to Day 28, Mean",240 mg QD,4.70%
same,"FEF 25-75, Percent Change from Baseline to Day 28, Median",240 mg QD,5.77%
same,"FEV1, Day 1, Mean",240 mg QD,2.09
same,"FEV1, Day 1, Median",240 mg QD,2.02
same,"FEV1, Day 14, Mean",240 mg QD,2.16
same,"FEV1, Day 14, Median",240 mg QD,2.09
same,"FEV1, Day 28, Mean",240 mg QD,2.13
same,"FEV1, Day 28, Median",240 mg QD,2.15
same,"FEV1, Percent Change from Baseline to Day 14, Mean",240 mg QD,3.84%
same,"FEV1, Percent Change from Baseline to Day 14, Median",240 mg QD,1.92%
same,"FEV1, Percent Change from Baseline to Day 28, Mean",240 mg QD,2.51%
same,"FEV1, Percent Change from Baseline to Day 28, Median",240 mg QD,1.28%
same,"% predicted FEV1, Day 1, Mean",Combined 240 mg QD and BID,52.1 % predicted
same,"% predicted FEV1, Day 1, Median",Combined 240 mg QD and BID,51.0 % predicted
same,"% predicted FEV1, Day 14, Mean",Combined 240 mg QD and BID,54.7 % predicted
same,"% predicted FEV1, Day 14, Median",Combined 240 mg QD and BID,52.0 % predicted
same,"% predicted FEV1, Day 28, Mean",Combined 240 mg QD and BID,54.0 % predicted
same,"% predicted FEV1, Day 28, Median",Combined 240 mg QD and BID,54.0 % predicted
same,"FEF 25-75, Percent Change from Baseline to Day 14, Mean",Combined 240 mg QD and BID,13.23%
same,"FEF 25-75, Percent Change from Baseline to Day 14, Median",Combined 240 mg QD and BID,8.79%
same,"FEF 25-75, Percent Change from Baseline to Day 28, Mean",Combined 240 mg QD and BID,8.78%
same,"FEF 25-75, Percent Change from Baseline to Day 28, Median",Combined 240 mg QD and BID,5.74%
same,"FEV1, Day 1, Mean",Combined 240 mg QD and BID,1.98
same,"FEV1, Day 1, Median",Combined 240 mg QD and BID,1.81
same,"FEV1, Day 14, Mean",Combined 240 mg QD and BID,2.09
same,"FEV1, Day 14, Median",Combined 240 mg QD and BID,2.03
same,"FEV1, Day 28, Mean",Combined 240 mg QD and BID,2.02
same,"FEV1, Day 28, Median",Combined 240 mg QD and BID,1.98
same,"FEV1, Percent Change from Baseline to Day 14, Mean",Combined 240 mg QD and BID,6.32%
same,"FEV1, Percent Change from Baseline to Day 14, Median",Combined 240 mg QD and BID,3.94%
same,"FEV1, Percent Change from Baseline to Day 28, Mean",Combined 240 mg QD and BID,3.75%
same,"FEV1, Percent Change from Baseline to Day 28, Median",Combined 240 mg QD and BID,2.80%
same,"FEF 25-75, Mean","Day 1 (baseline), 120 mg QD",1.17
same,"FEF 25-75, Median","Day 1 (baseline), 120 mg QD",0.98
same,"FEF 25-75, Mean","Day 1 (baseline), 240 mg BID",0.85
same,"FEF 25-75, Median","Day 1 (baseline), 240 mg BID",0.68
same,"FEF 25-75, Mean","Day 1 (baseline), 240 mg QD",1.22
same,"FEF 25-75, Median","Day 1 (baseline), 240 mg QD",1.10
same,"FEF 25-75, Mean",[1],1.04
same,"FEF 25-75, Median",[1],0.83
same,"FEF 25-75, Mean","Day 14, 120 mg QD",1.18
same,"FEF 25-75, Median","Day 14, 120 mg QD",0.99
same,"FEF 25-75, Mean","Day 14, 240 mg BID",1.00
same,"FEF 25-75, Median","Day 14, 240 mg BID",0.78
same,"FEF 25-75, Mean","Day 14, 240 mg QD",1.33
same,"FEF 25-75, Median","Day 14, 240 mg QD",1.11
same,"FEF 25-75, Mean",[2],1.17
same,"FEF 25-75, Median",[2],0.92
same,"FEF 25-75, Mean","Day 28, 120 mg QD",1.23
same,"FEF 25-75, Median","Day 28, 120 mg QD",1.03
same,"FEF 25-75, Mean","Day 28, 240 mg BID",0.93
same,"FEF 25-75, Median","Day 28, 240 mg BID",0.78
same,"FEF 25-75, Mean","Day 28, 240 mg QD",1.27
same,"FEF 25-75, Median","Day 28, 240 mg QD",1.15
same,"FEF 25-75, Mean","Day 28, combined 240 mg QD and BID",1.10
